Experimental data taken from patent US12180185B2, “Compound as protein kinase inhibitor, and pharmaceutical composition comprising thereof” (HK INNO.N Corporation, priority 2018, dated 2024).

Biological target: JAK1 (Homo sapiens (Human), UniProt P23458)
Test: Analysis of JAK1 activity inhibitory capacity (ADP-Glo Kinase assay)
Type: biochemical
Details: JAK1 enzyme, ATP 250 uM, IRS-1tide substrate, 30° C. 40 minutes, luminescence
Description: Experimental Example 1: Analysis of JAK1 activity inhibitory capacity (ADP-Glo™ Kinase assay)
An inhibitory effect of the inventive compound on JAK was identified as follows.
A control material and a test material were prepared through dilution at each concentration by using DMSO. At the same time, ATP (250 uM) and JAK's substrate (JAK1, IRS-1tide 40 ng/mL) were prepared through dilution in kinase buffer (40 mM Tris-HCl pH 7.5, 20 mM MgCl2, 0.5 mg/mL BSA, 50 uM DTT).
A test drug for each concentration, the substrate, the ATP and JAK enzymes were mixed in an eppendorf tube, and then subjected to reaction in an incubator at 30° C. for 40 minutes.
ADP-Glo ? reagent included in ADP-Glo™ Kinase Enzyme System (Promega, USA, V9571) was added to each eppendorf tube, and then subjected to reaction in the incubator at 30° C. for 40 minutes.
A kinase detection reagent included in the ADP-Glo™ Kinase Enzyme System was inserted into the eppendorf tube, after which luminescence was measured by using Wallac Victor 2TM with an integration time set to 1 second, such that an inhibitory capacity of the test material on JAKs phosphorylation was analyzed. A concentration of the compound, at which JAK enzyme activity inhibition occurs 50% compared to the control group, was determined as IC50 (nM) of an inhibitor.

JAK1, sequence (P23458 whole entry): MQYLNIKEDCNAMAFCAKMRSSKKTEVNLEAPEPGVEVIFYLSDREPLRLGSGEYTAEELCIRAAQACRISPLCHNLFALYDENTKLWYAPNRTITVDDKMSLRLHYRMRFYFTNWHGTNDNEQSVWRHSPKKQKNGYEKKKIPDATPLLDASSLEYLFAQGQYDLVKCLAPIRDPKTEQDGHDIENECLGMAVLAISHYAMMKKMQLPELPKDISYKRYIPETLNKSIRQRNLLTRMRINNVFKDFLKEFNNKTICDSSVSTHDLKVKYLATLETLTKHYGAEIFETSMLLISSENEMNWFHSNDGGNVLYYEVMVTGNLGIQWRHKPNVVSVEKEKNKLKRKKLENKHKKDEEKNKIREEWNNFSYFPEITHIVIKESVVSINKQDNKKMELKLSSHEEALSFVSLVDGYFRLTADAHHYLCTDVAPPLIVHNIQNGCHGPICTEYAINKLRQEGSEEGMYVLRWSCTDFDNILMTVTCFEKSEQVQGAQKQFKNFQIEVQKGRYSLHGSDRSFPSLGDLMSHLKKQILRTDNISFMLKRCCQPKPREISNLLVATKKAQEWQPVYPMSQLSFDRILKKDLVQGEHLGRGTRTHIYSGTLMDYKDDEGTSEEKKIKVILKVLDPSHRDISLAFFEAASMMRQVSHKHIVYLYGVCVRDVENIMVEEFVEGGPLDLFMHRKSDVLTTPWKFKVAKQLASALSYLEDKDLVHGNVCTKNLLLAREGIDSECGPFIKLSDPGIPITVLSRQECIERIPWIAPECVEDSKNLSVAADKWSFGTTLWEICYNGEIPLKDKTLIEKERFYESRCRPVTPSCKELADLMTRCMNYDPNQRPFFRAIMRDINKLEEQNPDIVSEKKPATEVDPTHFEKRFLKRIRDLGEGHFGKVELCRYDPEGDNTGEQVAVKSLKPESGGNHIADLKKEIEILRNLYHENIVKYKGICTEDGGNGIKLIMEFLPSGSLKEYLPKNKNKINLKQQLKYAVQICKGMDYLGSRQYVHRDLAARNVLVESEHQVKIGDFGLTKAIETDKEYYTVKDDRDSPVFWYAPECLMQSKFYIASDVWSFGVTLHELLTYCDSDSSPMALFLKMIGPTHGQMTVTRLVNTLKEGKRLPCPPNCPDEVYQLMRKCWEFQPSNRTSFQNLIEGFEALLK

SMILES	IC50
Cc1cnc(NC(=O)C2CC2)cc1-c1c[nH]c2c(NC(=O)CC#N)cccc12 [Example 8, N-(4-(7-(2-cyanoacetamido)-1H-indol-3-yl)-5-methylpyridin-2-yl)cyclopropanecarboxamide]	100 to 1000 nM
CC(C)=C(C#N)C(=O)Nc1cccc2c(-c3cc(C)nc(NC(=O)C4CC4)c3)c[nH]c12 [Example 9, N-(4-(7-(2-cyano-3-methylbut-2-enamido)-1H-indol-3-yl)-6-methylpyridin-2-yl)cyclopropanecarboxamide]	> 1000 nM
N#CC1(C(=O)Nc2cccc3c(-c4ccnc(NC(=O)C5CC5)c4)c[nH]c23)CCOCC1 [Example 11, 4-cyano-N-(3-(2-(cyclopropanecarboxamido)pyridin-4-yl)-1H-indol-7-yl)tetrahydro-2H-pyran-4-carboxamide]	100 to 1000 nM
CC(C)=C(C#N)C(=O)Nc1cccc2c(-c3cc(NC(=O)C4CC4)ncc3C)c[nH]c12 [Example 12, N-(4-(7-(2-cyano-3-methylbut-2-enamido)-1H-indol-3-yl)-5-methylpyridin-2-yl)cyclopropanecarboxamide]	> 1000 nM
CC(C)=C(C#N)C(=O)Nc1cc(C)cc2c(-c3ccnc(NC(=O)C4CC4)c3)c[nH]c12 [Example 15, N-(4-(7-(2-cyano-3-methylbut-2-enamido)-5-methyl-1H-indol-3-yl)pyridin-2-yl)cyclo propanecarboxamide]	100 to 1000 nM
Cc1cc(NC(=O)c2cnc(C)cn2)c2[nH]cc(-c3ccnc(NC(=O)C4CC4)c3)c2c1 [Example 16, N-(3-(2-(cyclopropanecarboxamido)pyridin-4-yl)-5-methyl-1H-indol-7-yl)-5-methylpyrazine-2-carboxamide]	100 to 1000 nM
CC(C(=O)Nc1cccc2c(-c3ccnc(NC(=O)C4CC4)c3)c[nH]c12)N1CCN(C)CC1 (stereo not shown) [Example 18, N-(4-(7-(2-(4-methylpiperazin-1-yl)propanamido)-1H-indol-3-yl)pyridin-2-yl)cyclopropanecarboxamide]	100 to 1000 nM
COc1cc(-c2c[nH]c3c(NC(=O)C(C#N)=C(C)C)cccc23)cc(NC(=O)C2CC2)n1 [Example 19, N-(4-(7-(2-cyano-3-methylbut-2-enamido)-1H-indol-3-yl)-6-methoxypyridin-2-yl)cyclopropanecarboxamide]	> 1000 nM
COc1cc(-c2c[nH]c3c(NC(=O)CC#N)cccc23)cc(NC(=O)C2CC2)n1 [Example 20, N-(4-(7-(2-cyanoacetamido)-1H-indol-3-yl)-6-methoxypyridin-2-yl)cyclopropanecarboxamide]	> 1000 nM
O=C(Nc1cccc2c(-c3ccnc(NC(=O)C4CC4)c3)c[nH]c12)c1nc(C(F)(F)F)cs1 [Example 21, N-(3-(2-(cyclopropanecarboxamido)pyridin-4-yl)-1H-indol-7-yl)-4-(trifluoromethyl)thiazole-2-carboxamide]	100 to 1000 nM
N#C/C(=C\c1ccccc1)C(=O)Nc1cccc2c(-c3ccnc(NC(=O)C4CC4)c3)c[nH]c12 [Example 22, (E)-N-(4-(7-(2-cyano-3-phenylacrylamido)-1H-indol-3-yl)pyridin-2-yl)cyclopropanecarboxamide]	100 to 1000 nM
N#C/C(=C\c1cccs1)C(=O)Nc1cccc2c(-c3ccnc(NC(=O)C4CC4)c3)c[nH]c12 [Example 25, (E)-N-(4-(7-(2-cyano-3-(thiophen-2-yl)acrylamido)-1H-indol-3-yl)pyridin-2-yl)cyclopropanecarboxamide]	100 to 1000 nM
CC(C)=C(C#N)C(=O)Nc1cccc2c(-c3ccnc(NC(=O)C4CC4)c3)cn(C)c12 [Example 26, N-(4-(7-(2-cyano-3-methylbut-2-enamido)-1-methyl-1H-indol-3-yl)pyridin-2-yl)cyclopropanecarboxamide]	> 1000 nM
N#Cc1ccc(C(=O)Nc2cccc3c(-c4ccnc(NC(=O)C5CC5)c4)c[nH]c23)cc1 [Example 27, 4-cyano-N-(3-(2-(cyclopropanecarboxamido)pyridin-4-yl)-1H-indol-7-yl)benzamide]	100 to 1000 nM
O=C(Nc1cccc2c(-c3ccnc(NC(=O)C4CC4)c3)c[nH]c12)c1ccc(C(F)(F)F)nc1 [Example 29, N-(3-(2-(cyclopropanecarboxamido)pyridin-4-yl)-1H-indol-7-yl)-6-(trifluoromethyl) nicotinamide]	100 to 1000 nM

The remaining lines, values ahead:

IC50	SMILES
< 100 nM	CC(C)=C(C#N)C(=O)Nc1cccc2c(-c3ccnc(NC(=O)C4CC4)c3)c[nH]c12 [Example 1, N-(4-(7-(2-cyano-3-methylbut-2-enamido)-1H-indol-3-yl)pyridin-2-yl)cyclopropanec arboxamide]
< 100 nM	O=C(Nc1cccc2c(-c3ccnc(NC(=O)C4CC4)c3)c[nH]c12)c1cc(F)cc(F)c1 [Example 2, N-(3-(2-(cyclopropanecarboxamido)pyridin-4-yl)-1H-indol-7-yl)-3,5-difluorobenzamide]
100 to 1000 nM	O=C(Nc1cc(-c2c[nH]c3c(NC(=O)C4CCCCC4)cccc23)ccn1)C1CC1 [Example 3, N-(3-(2-(cyclopropanecarboxamido)pyridin-4-yl)-1H-indol-7-yl)cyclohexanecarboxamide]
< 100 nM	O=C(Nc1cccc2c(-c3ccnc(NC(=O)C4CC4)c3)c[nH]c12)c1ccnc(F)c1 [Example 4, N-(3-(2-(cyclopropanecarboxamido)pyridin-4-yl)-1H-indol-7-yl)-2-fluoroisonicotinamide]
< 100 nM	Cc1cc(C)cc(C(=O)Nc2cccc3c(-c4ccnc(NC(=O)C5CC5)c4)c[nH]c23)c1 [Example 5, N-(3-(2-(cyclopropanecarboxamido)pyridin-4-yl)-1H-indol-7-yl)-3,5-dimethylbenzamid]
< 100 nM	O=C(Nc1cccc2c(-c3ccnc(NC(=O)C4CC4)c3)c[nH]c12)c1cncs1 [Example 6, N-(3-(2-(cyclopropanecarboxamido)pyridin-4-yl)-1H-indol-7-yl)thiazole-5-carboxamide]
< 100 nM	CCCC(=O)Nc1cccc2c(-c3ccnc(NC(=O)C4CC4)c3)c[nH]c12 [Example 7, N-(4-(7-butyramido-1H-indol-3-yl)pyridin-2-yl)cyclopropanecarboxamide]
< 100 nM	N#CCC(=O)Nc1cccc2c(-c3ccnc(NC(=O)C4CC4)c3)c[nH]c12 [Example 10, N-(4-(7-(2-cyanoacetamido)-1H-indol-3-yl)pyridin-2-yl)cyclopropanecarboxamide]
100 to 1000 nM	N#CC1(CC(=O)Nc2cccc3c(-c4ccnc(NC(=O)C5CC5)c4)c[nH]c23)CC1 [Example 13, N-(4-(7-(2-(l-cyanocyclopropyl)acetamido)-1H-indol-3-yl)pyridin-2-yl)cyclopropanecarboxamide]
< 100 nM	CC(C#N)C(=O)Nc1cccc2c(-c3ccnc(NC(=O)C4CC4)c3)c[nH]c12 (stereo not shown) [Example 14, N-(4-(7-(2-cyanopropanamido)-1H-indol-3-yl)pyridin-2-yl)cyclopropanecarboxamide]
100 to 1000 nM	CC(C)=C(C)C(=O)Nc1cccc2c(-c3ccnc(NC(=O)C4CC4)c3)c[nH]c12 [Example 17, N-(4-(7-(2,3-dimethylbut-2-enamido)-1H-indol-3-yl)pyridin-2-yl)cyclopropanecarboxamide]
100 to 1000 nM	O=C(Nc1cccc2c(-c3ccnc(NC(=O)C4CC4)c3)c[nH]c12)c1ccc[nH]1 [Example 23, N-(3-(2-(cyclopropanecarboxamido)pyridin-4-yl)-1H-indol-7-yl)-1H-pyrrole-2-carboxamide]
< 100 nM	Cc1ccncc1C(=O)Nc1cccc2c(-c3ccnc(NC(=O)C4CC4)c3)c[nH]c12 [Example 24, N-(3-(2-(cyclopropanecarboxamido)pyridin-4-yl)-1H-indol-7-yl)-4-methylnicotinamide]
< 100 nM	Cc1ccc(C(=O)Nc2cccc3c(-c4ccnc(NC(=O)C5CC5)c4)c[nH]c23)cn1 [Example 28, N-(3-(2-(cyclopropanecarboxamido)pyridin-4-yl)-1H-indol-7-yl)-6-methylnicotinamide]
< 100 nM	O=C(Nc1cccc2c(-c3ccnc(NC(=O)C4CC4)c3)c[nH]c12)c1cnc(F)c(F)c1 [Example 30, N-(3-(2-(cyclopropanecarboxamido)pyridin-4-yl)-1H-indol-7-yl)-5,6-difluoronicotinamide]
< 100 nM	O=C(Nc1cccc2c(-c3ccnc(NC(=O)C4CC4)c3)c[nH]c12)c1cncc(F)c1 [Example 31, N-(3-(2-(cyclopropanecarboxamido)pyridin-4-yl)-1H-indol-7-yl)-5-fluoronicotinamide]
100 to 1000 nM	O=C(Nc1cccc2c(-c3ccnc(NC(=O)C4CC4)c3)c[nH]c12)c1ccc(Cl)nc1 [Example 32, 6-chloro-N-(3-(2-(cyclopropanecarboxamido)pyridin-4-yl)-1H-indol-7-yl)nicotinamide]
100 to 1000 nM	O=C(Nc1cccc2c(-c3ccnc(NC(=O)C4CC4)c3)c[nH]c12)c1cc[nH]n1 [Example 33, N-(3-(2-(cyclopropanecarboxamido)pyridin-4-yl)-1H-indol-7-yl)-1H-pyrazole-3-carboxamide]
100 to 1000 nM	Cn1cccc(C(=O)Nc2cccc3c(-c4ccnc(NC(=O)C5CC5)c4)c[nH]c23)c1=O [Example 34, N-(3-(2-(cyclopropanecarboxamido)pyridin-4-yl)-1H-indol-7-yl)-1-methyl-2-oxo-1,2-dihydropyridine-3-carboxamide]
